Here are results for 2 compounds from article PMC8296708, “The pan HDAC inhibitor Givinostat improves muscle function and histological parameters in two Duchenne muscular dystrophy murine models expressing different haplotypes of the LTBP4 gene” (Skeletal Muscle, 2021).

SMILES strings stand for the structures.

Series [1] concerns D2.B10 mice. Kind of series: Grip strength test (FNmax) in D2.B10 mice. The class given is in vivo, mouse (D2.B10-Dmd^mdx/J). As to conditions: for FNmax from day 62 onwards: Givinostat 5, 10 and 37.5 mg/kg, vs vehicle; for FNmax from day 62 onwards / FNmax from day 21 until days 49-62: prednisone 1 mg/kg i.p. weekly; for FNmax from day 21 until days 49-62: Givinostat 10 and 37.5 mg/kg. The source says: (§1) For the efficacy studies, C57BL/10 J (Stock No: 000665) wild type (wt) and C57BL/10ScSn-Dmd^mdx/J (Stock No: 001801) 7–8-week-old male mice, DBA/2J wt (Stock No: 000671), and D2.B10-Dmd^mdx/J (Stock No: 013141) 6–7-week-old male mice were purchased from The Jackson Laboratories (Bar Harbor, Maine, USA). After 5 days of acclimatization in the animal facility, mice were randomized into different treatment groups based on their BW. C57BL/10J wt mice were assigned to the naive wt group (healthy mice that received no treatment, but were subjected to functional tests), whereas mdx mice were assigned to the following groups (9 mice/group; 4–5 mice/cage): naive mdx (mice that received no treatment, but were subjected to functional tests), vehicle (0.5% methylcellulose, p.o.), and Givinostat (0.1, 0.3, 1, 5, 10, 25, and 37.5 mg/kg, p.o.). DBA/2J mice were assigned to the naive wt group (healthy mice that received no treatment, but were subjected to functional tests), whereas D2.B10 mice were assigned to the following groups (12–13 mice/group; 4–5 mice/gage): vehicle (filtered tap water, p.o.), Givinostat (1, 5, 10, and 37.5 mg/kg, p.o.), prednisone 1 mg/kg, and Deflazacort 1 mg/kg (i.p.).
(§2) In the efficacy studies, Givinostat powder (ITF2357) was suspended in 0.5% methylcellulose (Sigma-Aldrich) and administered p.o. (by gavage) at the doses of 0.1, 0.3, 1, 5, 10, 25, and 37.5 mg/kg qdx5x15weeks (administration volume per mouse: 10 mL/kg) in mdx mice (see Additional Figure 1A). Vehicle-treated mdx mice received 0.5% methylcellulose suspension. Givinostat suspension was stored at + 4 °C, and it was freshly prepared every 7 days. Probably due to the impairment of their tongue and masticatory muscles, the oral gavage procedure turned out to be difficult to perform, and chronic treatment of D2.B10 mice by this route was considered to bear a high risk of damaging the esophagus. For this reason, Givinostat was administered in the drinking water. Givinostat was dissolved in filtered tap water and was administered in drinking water (throughout 24 h) for 105 days at the dose of 1, 5, 10, and 37.5 mg/kg/day, according to a daily estimate of water consumption of 4 ml/mouse/day. Water consumption was weekly monitored throughout the entire duration of the study weighing the bottle of each cage (maximum 4 mice per cage). Prednisone and Deflazacort powder (Sigma-Aldrich) was dissolved in 2% DMSO (Sigma-Aldrich) and diluted in sterile saline on injection days. Both drugs were administered weekly (for 15 weeks) by i.p. injection at the dose of 1 mg/kg in a volume of 10 mL/kg. Givinostat and steroid treatments started on days 7 and 9 of the experimental plan, respectively (see Additional Figure 1B). All mice were monitored daily and tolerability was evaluated on the basis of BW and clinical signs.
In both efficacy studies, the effectiveness of treatments was evaluated every week by measuring the forelimb strength by a grip strength meter (Ugo Basile SRL, Italy). BW of mdx (see Additional Figure 2) and D2.B10 mice (see Additional Figure 3) was also measured in order to normalize the absolute grip strength of each mouse with respect to its BW. The protocol provides 5 measurements for each mouse (the procedure was compliant with the standard operating procedures of TREAT–NMD Neuromuscular Network). The highest recorded value of maximal normalized strength (FNmax) obtained for each mouse at all the time points (from T0 to T15) was used for further analysis.
After taking baseline readings for behavioral assays (FNmax and distance run by the animals), mice were re-randomized based on these two parameters, also considering the previous randomization performed on their BW.
The grip strength and run to exhaustion tests were performed during the light-cycle phase, in the early hours of the morning (8:00–11:30 am). […]

The test system of series [2] is D2.B10 mice. Kind of series: Treadmill run to exhaustion test in D2.B10 mice. The class given is in vivo, mouse (D2.B10-Dmd^mdx/J). The conditions noted are these: for Effect on distance run, significance: Deflazacort, prednisone 1 mg/kg, lower doses of Givinostat.
Source text: as §1, §2
Run to exhaustion performance of mdx and D2.B10 mice was evaluated every 14 or 21 days, respectively, using a treadmill apparatus (Ugo Basile SRL, Italy). The exhaustion protocol consisted in an initially horizontal running at 5 m/min for 5 min after which the speed was increased 1 m/min every minute until exhaustion (the procedure was compliant with the standard operating procedures of TREAT–NMD Neuromuscular Network). […]
After taking baseline readings for behavioral assays (FNmax and distance run by the animals), mice were re-randomized based on these two parameters, also considering the previous randomization performed on their BW. […]

Series [3] can be described thus: Body weight of D2.B10 mice. The class given is in vivo, mouse (D2.B10-Dmd^mdx/J). Here is the method: as §2, with “Givinostat and steroid treatments started on days 7 and 9 of the experimental plan, respectively (see Additional Figure 1B).” left out
In both efficacy studies, the effectiveness of treatments was evaluated every week by measuring the forelimb strength by a grip strength meter (Ugo Basile SRL, Italy). BW of mdx (see Additional Figure 2) and D2.B10 mice (see Additional Figure 3) was also measured in order to normalize the absolute grip strength of each mouse with respect to its BW. […] The highest recorded value of maximal normalized strength (FNmax) obtained for each mouse at all the time points (from T0 to T15) was used for further analysis.

The subject of series [4] is in vivo pulmonary fibrosis model. Also noted: method as in McKinsey TA, unpublished results. The conditions noted are these: administered with the diet; ref McKinsey TA, unpublished results; cited from earlier work.

On to `CCN(CC)Cc1ccc2cc(COC(=O)Nc3ccc(C(=O)NO)cc3)ccc2c1` [Givinostat], for which, in the series with D2.B10 mice [1], the “Lowest dose with significant effect on FNmax from day 21 to day 104” value was determined as 10 mg/kg, the “FNmax from day 62 onwards” value is “remained significantly elevated until day 104” and the “FNmax from day 21 until days 49-62” value is given as “increased the FNmax of D2.B10-treated mice to that of wt healthy mice”. In the series with D2.B10 mice [1] (1-37.5 mg/kg/day in drinking water), the “Effect on FNmax” value is listed as “dose-dependent”. In the series with D2.B10 mice [1] (Deflazacort 1 mg/kg i.p. weekly, Givinostat 1 mg/kg), the “Time interval of significant FNmax improvement” value is given as “from day 42 to days 90/104”. Further, the “Difference in FNmax, Givinostat 37.5 mg/kg vs Deflazacort” value in the series on D2.B10 mice [1] (days 90 and 97, p < 0.05 and p < 0.01) is “a significant difference was also seen”. Also, the “Dose of maximal efficacy on FNmax” value in the series on D2.B10 mice [1] (drinking water) turned out to be 37.5 mg/kg. In addition, the “Significant differences in FNmax, Givinostat 37.5 mg/kg versus prednisone” value with D2.B10 mice [1] (p < 0.05) is “observed only at days 90 and 97”. Also, the “Effect on distance run, significance” value in the series on D2.B10 mice [2] is recorded as “not statistically significant”. Moreover, the Distance run in the series on D2.B10 mice [2] (Givinostat top dose (37.5 mg/kg), day 105 (vehicle 296 ± 17 m)) worked out at 473 ± 22 meters. Moreover, the Time to exhaustion entry with D2.B10 mice [2] (highest dose, day 105) is given as “significantly prolonged the time to exhaustion”. For the same compound, the “Body weight vs vehicle-treated mice” value in series [3] (D2.B10 mice) is listed as “no significant differences”. Moreover, in series [4], the “Activity in in vivo pulmonary fibrosis model” value was “inactive”.

For the compound `C[C@]12C=CC(=O)C=C1CC[C@@H]1[C@@H]2C(=O)C[C@@]2(C)[C@H]1CC[C@]2(O)C(=O)CO` [prednisone], the “Effect of steroid on FNmax in comparison” value in the series with D2.B10 mice [1] (1 mg/kg i.p. weekly, all the treatment period) is “comparable to that of Givinostat 5 e 10 mg/kg”. In the series with D2.B10 mice [1], the “FNmax from day 62 onwards” value is reported as “remained significantly elevated until day 104” and the “FNmax from day 21 until days 49-62” value is reported as “increased the FNmax of D2.B10-treated mice to that of wt healthy mice”. The “Effect on distance run, significance” value in the series with D2.B10 mice [2] is recorded as “not statistically significant”. Also, in series [3] (mouse, in vivo), the “Body weight vs vehicle-treated mice” value is given as “no significant differences”.
